The values that follow come from paper PMC9611521, “Optimization of Resveratrol Used as a Scaffold to Design Histone Deacetylase (HDAC-1 and HDAC-2) Inhibitors” (Pharmaceuticals, 2022).

Structures are written as SMILES.

The test system of one data set is SIRT1. Also on record: method as in PMID 30526767. The following applies: dose-dependent experiments; cited from earlier work.
The next data set has as its system HDAC isoforms. Details: method as in PMID 24023672. The following applies: RVT 100 µM, nuclear extract of HeLa cells; cited from earlier work.
The target in another data set is HDAC-2 (Homo sapiens, UniProt Q92769). Put plainly: Enzymatic HDAC inhibition assay (fluorescence), HDAC-2. It is filed as biochemical. The following applies: compound at 10 µM. Here is the method:
(§1) Enzymatic assays to evaluate HDAC inhibition were performed, and the design involved three steps: (a) Preliminary screening to identify the most promising compounds; (b) Evaluation by a panel of HDAC isoforms to investigate selectivity; and (c) Determination of IC50 values. Firstly, compounds (4–7; 15–26) were evaluated at 10 µM against HDAC-1 and HDAC-2 (Table 2).
(§2) The enzymatic assay to evaluate HDAC inhibitory effects for all final compounds against the distinct isoforms was carried out in accordance with the previously described procedures (Lopes et al., 2021). All compounds were initially screened at 10 µM against HDAC-1 and HDAC-2. […] All the compounds were dissolved in DMSO. A serial dilution of the compounds was performed in 100% DMSO with the highest concentration at 1 mM. Each intermediate compound dilution (in 100% DMSO) was diluted 10x in assay buffer to form a 10% DMSO intermediate dilution in HDAC assay buffer. 5 µL of this dilution was added to a 50 µL reaction to bring the final concentration of DMSO to 1% in all the reactions. Three independent experiments were carried out in triplicate for all experiments. The fluorescence intensity was measured at an excitation of 360 nm and emission of 460 nm using a Tecan Infinite M1000 microplate reader, and the percentage of activity was calculated using the formula: % activity = (F − Fb)/(Ft − Fb), where F = the intensity of fluorescence in the presence of the compound. In the absence of the test compound, the fluorescent intensity (Ft) in each dataset was defined as 100% activity, while in the absence of HDAC, the fluorescent intensity (Fb) in each dataset was set to 0% activity.

The target of the next data set is HDAC-1 (Homo sapiens, UniProt Q13547). In words: Enzymatic HDAC inhibition assay (fluorescence), HDAC-1. It is filed as biochemical. The following applies: compound at 10 µM. Here is the method: as §1, §2
Chain of HDAC-1 (Q13547 whole entry): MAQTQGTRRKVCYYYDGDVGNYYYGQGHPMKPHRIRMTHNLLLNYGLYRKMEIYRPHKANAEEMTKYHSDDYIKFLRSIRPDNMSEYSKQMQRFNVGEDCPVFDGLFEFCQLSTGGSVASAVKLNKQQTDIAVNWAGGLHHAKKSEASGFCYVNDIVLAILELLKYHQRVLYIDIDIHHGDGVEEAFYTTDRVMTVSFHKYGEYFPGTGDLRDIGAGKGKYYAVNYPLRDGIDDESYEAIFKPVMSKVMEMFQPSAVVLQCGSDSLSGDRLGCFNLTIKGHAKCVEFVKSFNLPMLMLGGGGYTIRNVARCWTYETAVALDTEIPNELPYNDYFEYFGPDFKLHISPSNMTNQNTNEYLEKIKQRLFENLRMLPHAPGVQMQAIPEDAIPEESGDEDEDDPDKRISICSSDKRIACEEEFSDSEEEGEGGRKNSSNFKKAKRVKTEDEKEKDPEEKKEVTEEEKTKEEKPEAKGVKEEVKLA

Chain of HDAC-2 (Q92769 whole entry, canonical isoform): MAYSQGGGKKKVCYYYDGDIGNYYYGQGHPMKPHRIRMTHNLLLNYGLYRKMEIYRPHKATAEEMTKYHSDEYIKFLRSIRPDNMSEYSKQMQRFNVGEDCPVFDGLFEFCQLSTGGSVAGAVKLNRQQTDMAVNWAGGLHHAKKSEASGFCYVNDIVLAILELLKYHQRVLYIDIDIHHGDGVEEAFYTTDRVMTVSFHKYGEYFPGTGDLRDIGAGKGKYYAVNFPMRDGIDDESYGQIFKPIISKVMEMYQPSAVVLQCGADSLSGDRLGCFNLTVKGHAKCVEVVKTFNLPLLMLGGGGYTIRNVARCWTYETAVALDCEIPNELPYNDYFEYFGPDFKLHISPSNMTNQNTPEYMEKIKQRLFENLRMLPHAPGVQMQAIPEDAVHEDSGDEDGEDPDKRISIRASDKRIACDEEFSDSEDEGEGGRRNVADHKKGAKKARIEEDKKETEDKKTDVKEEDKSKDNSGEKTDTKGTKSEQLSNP

Turning to `Oc1ccc(/C=C/c2cc(O)cc(O)c2)cc1` [Resveratrol (RVT), trans-3,5,4′-trihydroxystilbene], the “deacetylation rate of SIRT1” value in the data set with SIRT1 was “increased”. Moreover, in the data set with HDAC isoforms, the “inhibition of HDAC-1 and HDAC-10” value is listed as 40%; the “inhibition of HDAC-4 and HDAC-9” value was 50%.
For orientation: inhibition means the percentage by which the read-out fell short of the control. A higher inhibition goes with strong suppression. Consider `Nc1ccccc1NC(=O)c1ccc(CNc2ccccc2)cc1` [Compound (21)], for which the inhibition at 10 µM against HDAC-2 is 93 ± 1.2%; at HDAC-1, 96 ± 1.3%.
For `Nc1ccccc1NC(=O)c1ccc(COc2ccc(N3C(=O)c4ccccc4C3=O)cc2)cc1` [Compound (25)] the same measures were 21 ± 0.8% and 14 ± 0.5%.
For `Nc1ccccc1NC(=O)c1ccc(COc2ccc(O)cc2)cc1` [Compound (22)], in that order: 92 ± 0.7% and 96 ± 1.2%.
For `Nc1ccc(OCc2ccc(C(=O)Nc3ccccc3N)cc2)cc1` [Compound (23)], in that order: 52 ± 0.8% and 72 ± 1.1%.
For the molecule `O=C(O)c1ccc(COc2ccccc2)cc1` [Compound (15)], the inhibition at 10 µM came to 11% against HDAC-2 and 16 ± 0.6% at HDAC-1. For the same molecule, on HDAC-2 (10 µM), the HDAC-2 inhibition was 10 ± 0.5%.
As a reminder, the melting point is the temperature, or range, at which the solid turns liquid. With `Nc1ccccc1NC(=O)c1ccc(/C=C/c2ccccc2)cc1` [Compound (7)], the melting point lay within 177 to 179 °C. Moreover, at HDAC-2, at 10 µM the inhibition was 32 ± 0.7%. For the same molecule, the inhibition at 10 µM on HDAC-1 turned out to be 42 ± 0.7%.
As for `NC(=O)c1ccccc1OCc1ccc(C(=O)Nc2ccccc2N)cc1` [Compound (24)], the melting point is 162 to 163.7 °C. The molecule further returned an inhibition at 10 µM at HDAC-2 of 81 ± 1.1%. In addition, the inhibition at 10 µM on HDAC-1 stood at 86 ± 1%.
Take `Nc1ccccc1NC(=O)c1ccc(COc2ccccc2)cc1` [Compound (20)]: the inhibition at 10 µM against HDAC-2 worked out at 85 ± 1.1%; against HDAC-1, 87 ± 1.1%.
For `O=C(O)c1ccc(/C=C/c2ccccc2)cc1` [(6)], in that order: 0% and 9 ± 1%.
As to `NC(=O)c1ccccc1OCc1ccc(C(=O)O)cc1` [Compound (19)], the melting point fell in the range of 196.5 to 198.6 °C. This molecule showed an inhibition at 10 µM against HDAC-2 of 8 ± 0.6%. Also, at HDAC-1, the inhibition at 10 µM is 13 ± 0.9%.
With `Nc1ccc(/C=C/c2ccc(C(=O)Nc3ccccc3N)cc2)cc1` [Compound (4)], the inhibition at 10 µM at HDAC-2 was 28 ± 1%; on HDAC-1, 45 ± 1.2%.
As to `O=C(O)c1ccc(COc2ccc(O)cc2)cc1` [Compound (17)], the inhibition at 10 µM against HDAC-2 turned out to be 11 ± 0.5%; against HDAC-1 it was 12 ± 0.7%.
In the case of `Nc1ccccc1NC(=O)c1ccc(COc2ccc(N3C(=O)c4cccc([N+](=O)[O-])c4C3=O)cc2)cc1` [Compound (26)], the inhibition at 10 µM at HDAC-2 was 6 ± 0.6%; against HDAC-1 it was 1 ± 0.5%.
